Assay results reported in article PMC12421899, “Structural and molecular basis for phosphate recognition by SAR11 bacteria” (mBio, 2025).
Read-outs that look alike come from different tables or passages of the source.

Key:
CpPstS = test: MST-binding assay of CpPstS; design: species or system Candidatus Pelagibacter sp. HTCC7211; details: 25°C
Experimental: To analyze the binding affinity of CpPstS to phosphate, the microscale thermophoresis (MST)-binding assay was performed using the Monolith NT.115 instrument (NanoTemper Technologies GmbH). Based on previous studies showing that SAR11_1179 has a high binding affinity to phosphate ([33]), we purified the CpPstS protein under denaturing conditions and refolded it for the MST assay. […]. The high-affinity phosphate-binding affinity of CpPstS is consistent with that previously reported for SAR11_1179 ([33]). To further investigate the molecular mechanism underlying the high-affinity phosphate binding of CpPstS, we subsequently conducted structural biology studies on CpPstS.
Previous studies have shown that PstSCAB specifically transports inorganic phosphate ([10], [41], [42]). […] We therefore speculate that the larger substrate-binding cavity of CpPstS may allow it to bind to both phosphate and larger organic phosphorus compounds. To test this hypothesis, we conducted an MST-binding assay. […] […].
Using primers CppstS-F/CppstS-R, the CppstS gene was PCR amplified from the Candidatus Pelagibacter sp. HTCC7211 strain and inserted into the NdeI/XhoI restriction sites of the pET-22b vector containing a C-terminal His-tag (Table S3). The CpPstS and the selenomethionine (SeMet) derivative of CpPstS were expressed in E. coli BL21(DE3) cells under different culture conditions. For CpPstS protein expression for MST-binding assay, cells were cultured at 37°C in LB medium supplemented with 100 µg/mL ampicillin to an OD600 of 0.8–1.0, and induction was initiated with 0.35 mM isopropyl-β-D-thiogalactopyranoside (IPTG) at 15°C for 16 hours. For SeMet-CpPstS protein expression for crystallization, the SeMet-CpPstS protein was overexpressed in E. coli BL21(DE3) using M9 minimal medium supplemented with selenomethionine, lysine, leucine, valine, isoleucine, threonine, and phenylalanine ([50]). The overexpression was induced with 0.35 mM IPTG at 15°C for 16 hours. The purification of CpPstS for MST-binding assay was under denaturing conditions, cultured E. coli BL21(DE3) cells were collected by centrifugation, resuspended in lysis buffer (40 mM Tris-HCl [pH 8.0], 200 mM NaCl, 5% [vol/vol] glycerol, 2 mM EDTA, and 0.1 mM phenylmethanesulfonyl fluoride), and fractured by pressure crusher (JNBIO, China). The CpPstS protein was first purified by affinity chromatography on a Ni^2+-NTA column (Qiagen, Germany), washed with denaturing Ni binding buffer (8 M urea, 20 mM Tris, 250 mM NaCl, and 20 mM imidazole, pH 8.0) and eluted with denaturing Ni elution buffer (8 M urea, 20 mM Tris, 250 mM NaCl, and 250 mM imidazole, pH 8.0). […]
MST technology was used to quantify the binding affinities of NaH₂PO₄, Mpn, Glycerol-3P, and Glucose-6P to CpPstS. […]

[1] = molecular target: Synechococcus sp. WH8102 PstS1b; details: read-out: Kd of PstS1b for phosphate; cited from earlier work
[2] = molecular target: Synechococcus sp. WH8102 PstS1a; details: read-out: Kd of PstS1a for phosphate; cited from earlier work
[3] = molecular target: Synechococcus sp. WH8102 PstS2; details: read-out: Kd of PstS2 for phosphate; cited from earlier work
[4] = 40 mM MES pH 7.2, 0.005% Tween-20, read-out: Kd of CpPstS for organic phosphorus compounds

Row | Compound | Kd (CpPstS; refolded CpPstS, 40 mM MES pH 7.2, 0.005% Tween-20, NaH2PO4 titrated from 1.53 nM to 50 µM, listed as NaH2PO4, read-out: Kd (dissociation constant) of CpPstS for phosphate) | Kd (CpPstS; refolded CpPstS, 40 mM MES pH 7.2, 0.005% Tween-20, NaH2PO4 titrated from 1.53 nM to 50 µM, read-out: Kd (dissociation constant) of CpPstS for phosphate) | Kd [1] | Kd [2] | Kd [3] | Kd (CpPstS; [4])
1 | phosphate | 0.112 ± 0.0805 µM | 0.112 µM | 0.44 µM | 3.3 µM | 4.3 µM | –
2 | O=C[C@H](O)[C@@H](O)[C@H](O)[C@H](O)COP(=O)(O)O [glucose-6-phosphate] | – | – | – | – | – | 668 ± 253 µM
3 | O=P(O)(O)OCC(O)CO (stereo not shown) [glycerol-3-phosphate] | – | – | – | – | – | 105 ± 44.6 µM
